Data as given in publication PMC6522510 (Nature Communications, 2019).
Structures can show the parent of a compound that is named as a salt. Where two headings read alike, the source gives them in different places.

Tests used:
Parameters in all cases: species or system AML cell lines (8); Primary HTS, single concentration about 10 uM, Cell Titer Glo viability; log10 luminescence, per cent inhibition relative to cycloheximide control
Settings in all cases: 72 h, relative to cycloheximide control, log10 luminescence, inhibitor
[1] = tested on: CMS
[2] = tested on: ML-2
[3] = tested on: U937
[4] = tested on: MV4-11
[5] = tested on: M07e
[6] = tested on: CHRF288-11
[7] = tested on: MOLM-13
[8] = tested on: CMK

| Compound | CMS %inh ([1]; CMS %inh, 10 µM) | ML-2 %inh ([2]; ML-2 %inh, 10 µM) | U937 %inh ([3]; U937 %inh, 10 µM) | MV4-11 %inh ([4]; MV4-11 %inh, 10 µM) | M07e %inh ([5]; M07e %inh, 10 µM) | CHRF288-11 %inh ([6]; CHRF288-11 %inh, 10 µM) | MOLM-13 %inh ([7]; MOLM-13 %inh, 10 µM) | CMK %inh ([8]; CMK %inh, 10 µM) | CMS %inh [1] | ML-2 %inh [2] | U937 %inh [3] | MV4-11 %inh [4] | M07e %inh [5] | CHRF288-11 %inh [6] | MOLM-13 %inh [7] | CMK %inh [8] |
| --- | --- | --- | --- | --- | --- | --- | --- | --- | --- | --- | --- | --- | --- | --- | --- | --- |
| C[C@]12CC[C@@H]3c4ccc(O)cc4CC[C@H]3[C@@H]1CCC2=O [SJ000285760-7, ESTRONE] | 0.8051% | 0.07519% | 0.9734% | 2.184% | 1.639% | -1.204% | -0.4054% | 0.6093% | – | – | – | – | – | – | – | – |
| C[C@]12CC[C@@H]3c4ccc(O)cc4CC[C@H]3[C@@H]1CCC2=O [SJ000285760-8, ESTRONE] | -1.181% | 0.7014% | -0.6937% | 1.151% | 2.553% | 3.613% | -0.7843% | -1.298% | – | – | – | – | – | – | – | – |
| C=C(CC)C(=O)c1ccc(OCC(=O)O)c(Cl)c1Cl [SJ000285761-4, ETHACRYNIC ACID] | – | – | – | – | – | – | – | – | -0.1029% | 6.312% | 4.395% | 1.71% | 4.659% | 13.52% | 7.494% | 27.12% |
| CCc1cc(C(N)=S)ccn1 [SJ000285764-4, ETHIONAMIDE] | – | – | – | – | – | – | – | – | -3.091% | 0.2945% | -1.304% | -3.503% | 0.2673% | 8.533% | -0.3958% | -7.383% |
| CC(=O)OCC(=O)[C@@]12OC(C)(C)O[C@@H]1C[C@H]1[C@@H]3C[C@H](F)C4=CC(=O)C=C[C@]4(C)[C@@]3(F)[C@@H](O)C[C@@]12C [SJ000285768-4, FLUOCINONIDE] | – | – | – | – | – | – | – | – | 8.496% | 0.7594% | 4.65% | 1.473% | 4.323% | 0.7625% | 6.203% | 3.895% |
| Cc1ccc(C)c(OCCCC(C)(C)C(=O)O)c1 [SJ000285775-4, GEMFIBROZIL] | 6.72% | -0.7985% | -0.006863% | 1.327% | 3.732% | -1.527% | 2.26% | 2.032% | – | – | – | – | – | – | – | – |
| Cc1ccc(C)c(OCCCC(C)(C)C(=O)O)c1 [SJ000285775-5, GEMFIBROZIL] | 12.02% | 5.256% | 12.09% | 21.39% | 4.331% | 15.66% | 7.787% | 52.47% | – | – | – | – | – | – | – | – |
| N=C(N)NCCN1CCCCCCC1 [SJ000285779-4, GUANETHIDINE SULFATE] | – | – | – | – | – | – | – | – | -3.451% | 1.503% | -2.581% | -2.801% | 0.2704% | -6.834% | -0.2658% | -2.691% |
| NS(=O)(=O)c1cc2c(cc1Cl)NCNS2(=O)=O [SJ000285785-7, HYDROCHLOROTHIAZIDE] | – | – | – | – | – | – | – | – | 1.584% | 4.295% | -0.1321% | 1.232% | -2.196% | 2.834% | 5.809% | 2.395% |
| CCCCCC(=O)O[C@]1(C(C)=O)CC[C@H]2[C@@H]3CCC4=CC(=O)CC[C@]4(C)[C@H]3CC[C@@]21C [SJ000285789-3, HYDROXYPROGESTERONE CAPROATE] | – | – | – | – | – | – | – | – | -0.655% | -1.962% | 3.003% | -1.131% | 0.1043% | -3.09% | 1.659% | 2.985% |
| CC(=O)Nc1nnc(S(N)(=O)=O)s1 [SJ000285803-7, ACETAZOLAMIDE] | – | – | – | – | – | – | – | – | 0.5025% | -2.151% | -0.874% | 1.807% | -1.461% | 0.8463% | 3.554% | 2.601% |
